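Briefly, cells in 96-well plates were exposed to five compound concentrations for 48 h, and endpoints were estimated by linear interpolation. The concentration for full growth arrest is given as TGI.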
Key:
Test in all cases: DTP human tumour cell line panel, 48 h
786-0 renal = test system: 786-0 renal
A498 renal = test system: A498 renal
A549 NSCLC = test system: A549 NSCLC
ACHN renal = test system: ACHN renal
CAKI-1 renal = test system: CAKI-1 renal
CCRF-CEM leukemia = test system: CCRF-CEM leukemia
COLO 205 colon = test system: COLO 205 colon
DLD-1 colon = test system: DLD-1 colon
DMS 114 small cell lung = test system: DMS 114 small cell lung
DMS 273 small cell lung = test system: DMS 273 small cell lung
EKVX NSCLC = test system: EKVX NSCLC
HCC-2998 colon = test system: HCC-2998 colon
HCT-116 colon = test system: HCT-116 colon
HCT-15 colon = test system: HCT-15 colon
HL-60(TB) leukemia = test system: HL-60(TB) leukemia
HOP-18 NSCLC = test system: HOP-18 NSCLC
HOP-62 NSCLC = test system: HOP-62 NSCLC
HOP-92 NSCLC = test system: HOP-92 NSCLC
HT29 colon = test system: HT29 colon
IGROV1 ovarian = test system: IGROV1 ovarian
K-562 leukemia = test system: K-562 leukemia
KM12 colon = test system: KM12 colon
KM20L2 colon = test system: KM20L2 colon
LOX IMVI melanoma = test system: LOX IMVI melanoma
LXFL 529 NSCLC = test system: LXFL 529 NSCLC
M14 melanoma = test system: M14 melanoma
M19-MEL melanoma = test system: M19-MEL melanoma
MALME-3M melanoma = test system: MALME-3M melanoma
MOLT-4 leukemia = test system: MOLT-4 leukemia
NCI-H226 lung = test system: NCI-H226 lung
NCI-H23 lung = test system: NCI-H23 lung
NCI-H460 lung = test system: NCI-H460 lung
NCI-H522 lung = test system: NCI-H522 lung
OVCAR-3 ovarian = test system: OVCAR-3 ovarian
OVCAR-4 ovarian = test system: OVCAR-4 ovarian
OVCAR-5 ovarian = test system: OVCAR-5 ovarian
OVCAR-8 ovarian = test system: OVCAR-8 ovarian
RXF 393 renal = test system: RXF 393 renal
SF-268 CNS = test system: SF-268 CNS
SF-295 CNS = test system: SF-295 CNS
SF-539 CNS = test system: SF-539 CNS
SK-MEL-2 melanoma = test system: SK-MEL-2 melanoma
SK-MEL-28 melanoma = test system: SK-MEL-28 melanoma
SK-OV-3 ovarian = test system: SK-OV-3 ovarian
SN12C renal = test system: SN12C renal
SNB-19 CNS = test system: SNB-19 CNS
SNB-75 CNS = test system: SNB-75 CNS
SR leukemia = test system: SR leukemia
SW-620 colon = test system: SW-620 colon
TK-10 renal = test system: TK-10 renal
U251 CNS = test system: U251 CNS
UACC-257 melanoma = test system: UACC-257 melanoma
UACC-62 melanoma = test system: UACC-62 melanoma
UO-31 renal = test system: UO-31 renal
XF 498 CNS = test system: XF 498 CNS
RPMI-8226 leukemia = test system: RPMI-8226 leukemia
SK-MEL-5 melanoma = test system: SK-MEL-5 melanoma
SNB-78 CNS = test system: SNB-78 CNS

Structure (SMILES): CC(C)(C)c1ccc2c(c1)C(O)(c1ccccc1)c1cc(C(C)(C)C)ccc1C2(O)C(F)(F)F (stereo not drawn)
- TGI (786-0 renal): 3.77 µM
- TGI (A498 renal): 3.25 µM
- TGI (A549 NSCLC): 3.7 µM
- TGI (ACHN renal): 5.77 µM
- TGI (CAKI-1 renal): 4.73 µM
- TGI (CCRF-CEM leukemia): 5.57 µM
- TGI (COLO 205 colon): 3.27 µM
- TGI (DLD-1 colon): 4.15 µM
- TGI (DMS 114 small cell lung): 5.21 µM
- TGI (DMS 273 small cell lung): 3.55 µM
- TGI (EKVX NSCLC): 9.85 µM
- TGI (HCC-2998 colon): 3.66 µM
- TGI (HCT-116 colon): 3.37 µM
- TGI (HCT-15 colon): 3.83 µM
- TGI (HL-60(TB) leukemia): 5.15 µM
- TGI (HOP-18 NSCLC): 5.06 µM
- TGI (HOP-62 NSCLC): 2.94 µM
- TGI (HOP-92 NSCLC): 3.79 µM
- TGI (HT29 colon): 2.99 µM
- TGI (IGROV1 ovarian): 4.94 µM
- TGI (K-562 leukemia): 5.62 µM
- TGI (KM12 colon): 4.87 µM
- TGI (KM20L2 colon): 3.05 µM
- TGI (LOX IMVI melanoma): 3.32 µM
- TGI (LXFL 529 NSCLC): 4.39 µM
- TGI (M14 melanoma): 3.59 µM
- TGI (M19-MEL melanoma): 3.7 µM
- TGI (MALME-3M melanoma): 5.56 µM
- TGI (MOLT-4 leukemia): 4.71 µM
- TGI (NCI-H226 lung): 2.35 µM
- TGI (NCI-H23 lung): 4.39 µM
- TGI (NCI-H460 lung): 3.5 µM
- TGI (NCI-H522 lung): 3.45 µM
- TGI (OVCAR-3 ovarian): 4.29 µM
- TGI (OVCAR-4 ovarian): 3.7 µM
- TGI (OVCAR-5 ovarian): 3.05 µM
- TGI (OVCAR-8 ovarian): 4.29 µM
- TGI (RXF 393 renal): 3.87 µM
- TGI (SF-268 CNS): 4.48 µM
- TGI (SF-295 CNS): 2.88 µM
- TGI (SF-539 CNS): 3.41 µM
- TGI (SK-MEL-2 melanoma): 3.63 µM
- TGI (SK-MEL-28 melanoma): 4.54 µM
- TGI (SK-OV-3 ovarian): 8.57 µM
- TGI (SN12C renal): 3.14 µM
- TGI (SNB-19 CNS): 6.32 µM
- TGI (SNB-75 CNS): 5.48 µM
- TGI (SR leukemia): 5.12 µM
- TGI (SW-620 colon): 4.23 µM
- TGI (TK-10 renal): 11.4 µM
- TGI (U251 CNS): 3.31 µM
- TGI (UACC-257 melanoma): 4.85 µM
- TGI (UACC-62 melanoma): 3.66 µM
- TGI (UO-31 renal): 4.58 µM
- TGI (XF 498 CNS): 2.9 µM

Structure (SMILES): O=C(Nc1nc2ncn(CCNCCn3cnc4nc(NC(=O)c5ccccc5)[nH]c(=O)c43)c2c(=O)[nH]1)c1ccccc1
- TGI (786-0 renal): > 100 µM
- TGI (A498 renal): > 100 µM
- TGI (A549 NSCLC): > 100 µM
- TGI (ACHN renal): > 100 µM
- TGI (CAKI-1 renal): > 100 µM
- TGI (CCRF-CEM leukemia): > 100 µM
- TGI (COLO 205 colon): > 100 µM
- TGI (DLD-1 colon): > 100 µM
- TGI (DMS 273 small cell lung): > 100 µM
- TGI (EKVX NSCLC): > 100 µM
- TGI (HCC-2998 colon): > 100 µM
- TGI (HCT-116 colon): > 100 µM
- TGI (HCT-15 colon): > 100 µM
- TGI (HL-60(TB) leukemia): > 100 µM
- TGI (HOP-18 NSCLC): > 100 µM
- TGI (HOP-62 NSCLC): > 100 µM
- TGI (HOP-92 NSCLC): > 100 µM
- TGI (HT29 colon): > 100 µM
- TGI (IGROV1 ovarian): > 100 µM
- TGI (K-562 leukemia): > 100 µM
- TGI (KM12 colon): > 100 µM
- TGI (KM20L2 colon): > 100 µM
- TGI (LOX IMVI melanoma): > 100 µM
- TGI (LXFL 529 NSCLC): > 100 µM
- TGI (M14 melanoma): > 100 µM
- TGI (M19-MEL melanoma): > 100 µM
- TGI (MALME-3M melanoma): > 100 µM
- TGI (MOLT-4 leukemia): > 100 µM
- TGI (NCI-H226 lung): > 100 µM
- TGI (NCI-H23 lung): > 100 µM
- TGI (NCI-H460 lung): > 100 µM
- TGI (NCI-H522 lung): > 100 µM
- TGI (OVCAR-3 ovarian): > 100 µM
- TGI (OVCAR-4 ovarian): > 100 µM
- TGI (OVCAR-5 ovarian): > 100 µM
- TGI (OVCAR-8 ovarian): > 100 µM
- TGI (RPMI-8226 leukemia): > 100 µM
- TGI (RXF 393 renal): > 100 µM
- TGI (SF-268 CNS): > 100 µM
- TGI (SF-295 CNS): > 100 µM
- TGI (SF-539 CNS): > 100 µM
- TGI (SK-MEL-2 melanoma): > 100 µM
- TGI (SK-MEL-28 melanoma): > 100 µM
- TGI (SK-MEL-5 melanoma): > 100 µM
- TGI (SK-OV-3 ovarian): > 100 µM
- TGI (SN12C renal): > 100 µM
- TGI (SNB-19 CNS): > 100 µM
- TGI (SNB-75 CNS): > 100 µM
- TGI (SNB-78 CNS): > 100 µM
- TGI (SW-620 colon): > 100 µM
- TGI (TK-10 renal): > 100 µM
- TGI (U251 CNS): > 100 µM
- TGI (UACC-257 melanoma): > 100 µM
- TGI (UACC-62 melanoma): > 100 µM
- TGI (UO-31 renal): > 100 µM
- TGI (XF 498 CNS): > 100 µM

Structure (SMILES): O=c1c2c([nH]c3cc4c(cc13)OCO4)-c1ccccc1C2
- TGI (786-0 renal): > 100 µM
- TGI (A549 NSCLC): > 100 µM
- TGI (ACHN renal): 53.8 µM
- TGI (CAKI-1 renal): > 100 µM
- TGI (CCRF-CEM leukemia): 71.4 µM
- TGI (COLO 205 colon): 31.5 µM
- TGI (DLD-1 colon): 58.7 µM
- TGI (DMS 273 small cell lung): 42.3 µM
- TGI (EKVX NSCLC): > 100 µM
- TGI (HCC-2998 colon): 84.1 µM
- TGI (HCT-116 colon): 37.4 µM
- TGI (HCT-15 colon): > 100 µM
- TGI (HL-60(TB) leukemia): 70.1 µM
- TGI (HOP-18 NSCLC): 68.1 µM
- TGI (HOP-62 NSCLC): 52.4 µM
- TGI (HOP-92 NSCLC): 56.3 µM
- TGI (HT29 colon): 33 µM
- TGI (IGROV1 ovarian): 49.7 µM
- TGI (K-562 leukemia): > 100 µM
- TGI (KM12 colon): 42.8 µM
- TGI (KM20L2 colon): 36.7 µM
- TGI (LOX IMVI melanoma): 31.7 µM
- TGI (LXFL 529 NSCLC): 63.7 µM
- TGI (M14 melanoma): 46.5 µM
- TGI (MALME-3M melanoma): 62.9 µM
- TGI (MOLT-4 leukemia): 82 µM
- TGI (NCI-H226 lung): 86.7 µM
- TGI (NCI-H23 lung): 67.5 µM
- TGI (NCI-H460 lung): 63.9 µM
- TGI (NCI-H522 lung): 55.5 µM
- TGI (OVCAR-3 ovarian): 51.6 µM
- TGI (OVCAR-4 ovarian): > 100 µM
- TGI (OVCAR-8 ovarian): > 100 µM
- TGI (RPMI-8226 leukemia): 48.2 µM
- TGI (RXF 393 renal): 34.2 µM
- TGI (SF-268 CNS): > 100 µM
- TGI (SF-295 CNS): 84.8 µM
- TGI (SF-539 CNS): 34.7 µM
- TGI (SK-MEL-2 melanoma): 28.9 µM
- TGI (SK-MEL-28 melanoma): 59.9 µM
- TGI (SK-MEL-5 melanoma): 29.6 µM
- TGI (SK-OV-3 ovarian): > 100 µM
- TGI (SN12C renal): 84.6 µM
- TGI (SNB-19 CNS): > 100 µM
- TGI (SNB-78 CNS): > 100 µM
- TGI (SR leukemia): 56.1 µM
- TGI (SW-620 colon): > 100 µM
- TGI (TK-10 renal): 78.5 µM
- TGI (U251 CNS): 35.6 µM
- TGI (UACC-62 melanoma): 32.3 µM
- TGI (UO-31 renal): 86.1 µM
- TGI (XF 498 CNS): 49.4 µM

— PubChem BioAssay (NCI)
